Laboratory results reported in publication PMC6906472, “Purification and biological activity of natural variants synthesized by tridecaptin M gene cluster and in vitro drug-kinetics of this antibiotic class” (Scientific Reports, 2019).
Values after ≈ are worked out from the molar mass of the structure shown. Where two headings read alike, the source gives them in different places. Square brackets hold non-standard residues; d marks the D form. Peptide text beside a SMILES is read from it. * marks the point of attachment. X2 = CC[C@H](C)CCCC[C@@H](O)CC(=O)*; d(aIle) = CC[C@H](C)[C@@H](N)C(=O)O; X1 = CC[C@H](C)CCCCC(=O)*; dDab = NCC[C@@H](N)C(=O)O; βNA = c1ccc2cc(N*)ccc2c1; Dab = NCC[C@H](N)C(=O)O

Assays:
P. aeruginosa ATCC 27853 [1] = system: P. aeruginosa ATCC 27853
Protocol: (§1) MICs for all the compounds were determined by broth microdilution assay, according to CLSI guidelines[16] as described previously. Haemolysis experiments were performed with fresh rabbit RBCs[11]. All the compounds were tested at a concentration of 128 µg/ml. To obtain rabbit blood, the experiments and the protocols were in accordance with the ethical standards of the Institutional Animal Ethics Committee (IAEC) of the Institute of Microbial Technology approved (Approval no. IAEC/17/11) by Committee for the Purpose of Control And Supervision of Experiments on Animals (CPCSEA, Government of India).

[2] = system: Serratia marcescens MTCC 97
Protocol: as §1

[3] = system: K. pneumoniae AH-3 (Col-R)
Protocol: as §1

[4] = system: Proteus mirabilis MTCC 1429
Protocol: as §1

[5] = system: K. pneumoniae AH-16 (Col-R)
Protocol: as §1

E. coli CF-23 (mcr-1) = system: E. coli CF-23 (mcr-1)
Protocol: as §1

[6] = system: K. pneumoniae ATCC 700603
Protocol: as §1

A. baumannii ATCC 19606 [7] = system: A. baumannii ATCC 19606
Protocol: as §1

K. pneumoniae P3R (M1-R) = conditions: broth microdilution, CLSI guidelines; M1-resistant mutant of ATCC 700603
Protocol: as §1

K. pneumoniae GMCH 13 = test: microbe, parasite or virus in culture; conditions: for Intrinsic Activity; MIC: ~4 × 10^5 CFU/ml, CA-MHB, 16 to 18 h, 37 °C
Protocol: (§2) Acinetobacter baumannii ATCC 19606, Pseudomonas aeruginosa ATCC 27853, K. pneumoniae ATCC 700603, K. pneumoniae P3R, K. pneumoniae GMCH 13 and K. pneumoniae GMCH 15 were grown in CA-MHB and adjusted to ~4 × 10^5 CFU/ml. 100 µl of fresh CA-MHB containing carbonyl cyanide m-chlorophenyl hydrazine (CCCP) or phenylalanine-arginine beta-naphthylamide (PAβN) (at a final concentration of their 1/4th of MIC or 1/8th of MIC) was added to the wells of a 96-well flat bottom plate. Tridecaptin M was diluted in a 2-fold manner. 100 µl of culture was added and the plates were incubated for 16 to 18 h at 37 °C and observed for MICs. The fold modulation in MICs of tridecaptin M was calculated by comparing the results in the presence or absence of CCCP and PAβN.

K. pneumoniae GMCH 15 = test: microbe, parasite or virus in culture; conditions: for Intrinsic Activity; MIC: ~4 × 10^5 CFU/ml, CA-MHB, 16 to 18 h, 37 °C
Protocol: as §2

A. baumannii ATCC 19606 [8] = test: microbe, parasite or virus in culture; conditions: for Intrinsic Activity; MIC: ~4 × 10^5 CFU/ml, CA-MHB, 16 to 18 h, 37 °C
Protocol: as §2

[9] = system: outer membrane of A. baumannii ATCC 19606, P. aeruginosa ATCC 27853, K. pneumoniae ATCC 700603, P3R; test: Outer membrane permeabilization (NPN assay); type: cell-based; conditions: peptide 4 µg/ml and 8 µg/ml; triplicate, three biological repeats
Protocol: For outer membrane permeabilization study, NPN dye was used as described previously. A. baumannii ATCC 19606, P. aeruginosa ATCC 27853, K. pneumoniae ATCC 700603 were treated with two different concentrations of the peptide (4 µg/ml and 8 µg/ml). To check alteration in the cytoplasmic membrane potential, DiSC3(5) probe was used[11].

[10] = Order of elution in RP-HPLC (hydrophobicity); type: physicochemical; conditions: C18, acetonitrile/water with 0.075% TFA, in words
Protocol: The strain M-152 was inoculated in 700 ml MHB in 2 L Erlenmeyer flask, and the crude fermentation extract preparation, ion-exchange chromatography and the first step of RP-HPLC were performed as described for tridecaptin M[11]. The peaks obtained in HPLC were assayed against K. pneumoniae using agar well diffusion method. The active peaks (Fig. 1) were purified by the second round of HPLC under different conditions, optimized for each compound. The mobile phase system for all the peaks consisted of solvent A as 20% acetonitrile in Milli-Q and solvent B as 100% acetonitrile. Both solvents contained 0.075% TFA. C18 column (Waters, XBridge, 10 mm × 250 mm, 5 µm, 130 Å) was used to purify the compounds. Following gradient was used for the resolution of different components; for P1, 8% B to 26% B in 30 min, for P3, 8% B to 25% B in 23 min, for P4, 8% B to 23% B in 22 min, for P5, 3% B to 21.5% B in 24 min, for P6, 10% B to 25% B in 25 min, for P7, 8% B to 28% B in 25 min, for P8, 8% B to 26% B in 23 min, for P10, 10% B to 28% B in 30 min, for P11, 10% B to 28% B in 31 min. In two to three min, the gradient was reversed to initial column conditions and was equilibrated for five to six min, before the next injection. Multiple injections were given to generate a sufficient quantity of each compound for further studies.

[11] = system: K. pneumoniae ATCC 700603; test: Synergy assay with efflux pump inhibitors; type: cell-based
Protocol: as §2

P. aeruginosa ATCC 27853 [12] = test: microbe, parasite or virus in culture
Protocol: as §2

[13] = system: K. pneumoniae P3R (Tri-M Resistant); test: microbe, parasite or virus in culture
Protocol: as §2

[14] = system: efflux in A. baumannii ATCC 19606; conditions: CCCP 4 mg/L, Nile Red 5 μM, energization with 50 mM glucose, fluorescence 552/636 nm
Protocol: To assess the effect of CCCP on efflux in A. baumannii ATCC 19606, the Nile Red efflux assay was used[17]. The overnight grown culture was centrifuged at 3000 g for 10 min at room temperature. The pellet was resuspended in 20 mM potassium phosphate buffer (pH 7.0) containing 1 mM MgCl2 and washed twice with the same buffer. The cells were adjusted to an OD660 of 1.0 and the aliquots were transferred to a glass tubes containing CCCP at a final concentration of 4 mg/L. After 15 min, Nile Red was added to a final concentration of 5 μM, and the cell suspension was incubated in a shaker (140 rpm, 37 °C) for 3 h. The cells were kept at room temperature for 60 min and centrifuged for 5 min at 3000 g. The supernatant was discarded and the cell pellet was resuspended in assay buffer. Next, Nile Red efflux was immediately triggered by rapid energization with 50 mM glucose and the fluorescence was recorded at excitation and emission wavelength 552 nm and 636 nm, respectively, over a period of 5 min.

[15] = broth microdilution, CLSI guidelines
[16] = ~4 × 10^5 CFU/ml, CA-MHB, 16 to 18 h, 37 °C

| Compound | Peptide MIC (P. aeruginosa ATCC 27853 [1]; ATCC 27853) [µg/mL] | Peptide MIC [2] [µg/mL] | Peptide MIC [3] [µg/mL] | Peptide MIC [4] [µg/mL] | Peptide MIC [5] [µg/mL] | Peptide MIC (E. coli CF-23 (mcr-1)) [µg/mL] | Peptide MIC [6] [µg/mL] | Peptide MIC (A. baumannii ATCC 19606 [7]; ATCC 19606) [µg/mL] | Peptide MIC (K. pneumoniae P3R (M1-R)) [µg/mL] | further results |
| --- | --- | --- | --- | --- | --- | --- | --- | --- | --- | --- |
| CC[C@H](C)CCCCC(=O)NCC(=O)N[C@H](CCN)C(=O)NCC(=O)N[C@H](CO)C(=O)N[C@H](Cc1c[nH]c2ccccc12)C(=O)N[C@@H](CO)C(=O)N[C@@H](CCN)C(=O)N[C@H](CCN)C(=O)N[C@H](C(=O)N[C@@H](CCC(=O)O)C(=O)N[C@H](C(=O)N[C@@H](C(=O)N[C@@H](CO)C(=O)O)C(C)C)C(C)C)[C@@H](C)CC [M2] (X1-G[dDab]G[dS][dW]S[Dab][dDab]IEV[dV]S-OH) | >32 | >16 | 8 | >16 | >16 | 16 | 8 | >32 | >32 | – |
| CC[C@H](C)CCCCC(=O)NCC(=O)N[C@H](CCN)C(=O)NCC(=O)N[C@H](CO)C(=O)N[C@H](Cc1ccccc1)C(=O)N[C@@H](CO)C(=O)N[C@@H](CCN)C(=O)N[C@H](CCN)C(=O)N[C@H](C(=O)N[C@@H](CCC(=O)O)C(=O)N[C@H](C(=O)N[C@@H](C(=O)N[C@@H](CO)C(=O)O)C(C)C)[C@@H](C)CC)[C@@H](C)CC [M5] (X1-G[dDab]G[dS][dF]S[Dab][dDab]IEI[dV]S-OH) | >32 | 8 | 16 | 16 | 16 | 16 | 16 | >32 | 16 | – |
| CC[C@H](C)CCCCC(=O)NCC(=O)N[C@H](CCN)C(=O)NCC(=O)N[C@H](CO)C(=O)N[C@H](Cc1c[nH]c2ccccc12)C(=O)N[C@@H](CO)C(=O)N[C@@H](CCN)C(=O)N[C@H](CCN)C(=O)N[C@H](C(=O)N[C@@H](CCC(=O)O)C(=O)N[C@H](C(=O)N[C@@H](C(=O)N[C@@H](CO)C(=O)O)C(C)C)[C@@H](C)CC)[C@@H](C)CC [M6] (X1-G[dDab]G[dS][dW]S[Dab][dDab]IEI[dV]S-OH) | >32 | 16 | 4 | >16 | 2 | 4 | 4 | >32 | 16 | – |
| CC[C@H](C)CCCCC(=O)NCC(=O)N[C@H](CCN)C(=O)NCC(=O)N[C@H](CO)C(=O)N[C@H](Cc1c[nH]c2ccccc12)C(=O)N[C@@H](CO)C(=O)N[C@@H](CCN)C(=O)N[C@H](CCN)C(=O)N[C@H](C(=O)N[C@@H](CCC(=O)O)C(=O)N[C@H](C(=O)N[C@@H](C(=O)N[C@@H](CO)C(=O)O)[C@@H](C)CC)[C@@H](C)CC)C(C)C [M7] (X1-G[dDab]G[dS][dW]S[Dab][dDab]VEI[d(aIle)]S-OH) | >32 | 8 | 8 | >16 | 8 | 16 | 8 | >32 | 16 | – |
| CC[C@H](C)CCCCC(=O)NCC(=O)N[C@H](CCN)C(=O)NCC(=O)N[C@H](CO)C(=O)N[C@H](Cc1ccccc1)C(=O)N[C@@H](CO)C(=O)N[C@@H](CCN)C(=O)N[C@H](CCN)C(=O)N[C@H](C(=O)N[C@@H](CCC(=O)O)C(=O)N[C@H](C(=O)N[C@@H](C(=O)N[C@@H](CO)C(=O)O)[C@@H](C)CC)[C@@H](C)CC)[C@@H](C)CC [M8] (X1-G[dDab]G[dS][dF]S[Dab][dDab]IEI[d(aIle)]S-OH) | – | 16 | 8 | >16 | 4 | 4 | 4 | – | 128 | Peptide MIC (P. aeruginosa ATCC 27853 [1]; [15]): >128 µg/mL; Peptide MIC (A. baumannii ATCC 19606 [7]; [15]): 128 µg/mL |
| CC[C@H](C)CCCC[C@@H](O)CC(=O)N[C@@H](C(=O)N[C@H](CCN)C(=O)NCC(=O)N[C@H](CO)C(=O)N[C@H](Cc1ccccc1)C(=O)N[C@@H](CO)C(=O)N[C@@H](CCN)C(=O)N[C@H](CCN)C(=O)N[C@@H](Cc1ccccc1)C(=O)N[C@@H](CCC(=O)O)C(=O)N[C@H](C(=O)N[C@@H](C(=O)N[C@@H](CO)C(=O)O)[C@@H](C)CC)[C@@H](C)CC)C(C)C [M11] (X2-[dV][dDab]G[dS][dF]S[Dab][dDab]FEI[d(aIle)]S-OH; N-terminus and C-terminus assumed) | 8 | 4 | 1 | 4 | 1 | 1 | 2 | – | – | MIC of peptide in the presence of CCCP (K. pneumoniae GMCH 13; GMCH 13): 2 µg/mL; Intrinsic Activity; MIC (K. pneumoniae GMCH 13): 4 µg/mL; MIC of peptide in the presence of CCCP (K. pneumoniae GMCH 15; CCCP at 1/4th MIC): 2 µg/mL; MIC of peptide in the presence of CCCP (K. pneumoniae GMCH 15; CCCP at 1/8th MIC): 2 µg/mL; Intrinsic Activity; MIC (K. pneumoniae GMCH 15): 2 µg/mL; fold modulation (reduction) of MIC in the presence of CCCP (A. baumannii ATCC 19606 [8]; MIC with versus without CCCP): four; Intrinsic Activity; MIC (A. baumannii ATCC 19606 [8]): 4 µg/mL; NPN uptake [9]: greater uptake of NPN, compared to M1; hydrophobicity by order of elution in HPLC [10]: greater hydrophobicity |
| NC(N)=NCCC[C@H](NC(=O)[C@@H](N)Cc1ccccc1)C(=O)Nc1ccc2ccccc2c1 [PAβN, phenylalanine-arginine beta-naphthylamide, reference compound] (H-Phe-Arg-βNA) | – | – | – | – | – | – | – | – | – | MIC ([11]; Klebsiella pneumoniae, ATCC700603, read-out: Intrinsic Activity, MIC): 256 µg/mL; MIC (P. aeruginosa ATCC 27853 [12]; Pseudomonas aeruginosa, ATCC27853, read-out: Intrinsic Activity, MIC): 64 µg/mL (≈ 143 µM); MIC ([13]; Klebsiella pneumoniae, read-out: Intrinsic Activity, MIC): 256 µg/mL (≈ 573 µM); MIC (K. pneumoniae GMCH 13; Klebsiella pneumoniae, GMCH13, read-out: Intrinsic Activity, MIC): 256 µg/mL (≈ 573 µM); MIC (K. pneumoniae GMCH 15; Klebsiella pneumoniae, GMCH15, read-out: Intrinsic Activity, MIC): 256 µg/mL (≈ 573 µM); MIC (A. baumannii ATCC 19606 [8]; Acinetobacter baumannii, ATCC19606, read-out: Intrinsic Activity, MIC): 64 µg/mL (≈ 143 µM) |
| carbonyl cyanide m-chlorophenyl hydrazine [CCCP, reference compound] | – | – | – | – | – | – | – | – | – | Intrinsic Activity; MIC [11, 16]: 128 µg/mL; Intrinsic Activity; MIC (P. aeruginosa ATCC 27853 [12]; [16]): 64 µg/mL; Intrinsic Activity; MIC [13, 16]: 128 µg/mL; Intrinsic Activity; MIC (K. pneumoniae GMCH 13): 32 µg/mL; Intrinsic Activity; MIC (K. pneumoniae GMCH 15): 64 µg/mL; Intrinsic Activity; MIC (A. baumannii ATCC 19606 [8]): 64 µg/mL; effect on efflux of Nile red dye [14]: inhibited the efflux of Nile red dye |
